{
  "source": "patent US6451812B1",
  "about": "“Farnesyl protein transferase inhibitors for treating arthropathies” (Janssen Pharmaceutica N.V., priority 1998, dated 2002)",
  "system": "DBA1/J mice",
  "experiment": "Collagen type II induced arthritis, prophylactic treatment (Example 1)",
  "format": "in vivo",
  "details": "for Ankylosis score / Incidence of ankylosis (% of animals affected) / Incidence of arthritis (% of animals affected) / Mean Arthritic Score / Mean number of affected paws: 100 mpk (2 ×) orally, treated day 20-36",
  "method": "Male DBA1/J mice were immunized intradermally with collagen type II emulsified in complete Freund's Adjuvant on day 0 and day 21. Treatment of mice was started on day 20 (10 animals/treatment group). Mice were treated orally twice daily (6 hours time interval) with vehicle [DMSO: cremophor: 0.9% NaCl solution, 1:1:8 (v:v:v)] or compound 75 at a dose of 100 mg/kg. Three times per week symptoms of arthritis were scored. Animals were treated till day 36, at day 37 animals were sacrificed, blood was collected for analysis of anti-collagen antibodies, radiographs were made and paws were fixed for histological evaluation. […] Trained lab personnel evaluated the severity and incidence of the arthritic symptoms at regular intervals without knowing which animals had received vehicle or drug.\nIn Table 9, the mean arthritic score is shown. For each paw, a score ranging from 0 (normal) to 2 (maximal redness and swelling) is given. The score for the 4 paws is summed up and averaged for the 10 animals per group (=Mean arthritic score).\nTable 11 summarizes the results of the observations for the occurrence of ankylosis as the arthritis progresses. Each paw is scored as follows: 0 for no ankylosis, 1 for ankylosis. Again the results for the four paws are summed up and averaged for the 10 animals. At the end of the experiment, the ankylosis score in the vehicle group (3.1) is clearly higher than that in the group treated with Compound 75 (1.2).",
  "key": {"[1]": {"details": "100 mg/kg orally twice daily, day 20-36"}, "[2]": {"details": "100 mg/kg orally twice daily, versus vehicle"}},
  "data": [
    {"smiles": "Cn1cncc1C(N)(c1ccc(Cl)cc1)c1ccc2c(c1)c(-c1cccc(Cl)c1)cc(=O)n2C", "note": "(single isomer, unassigned; (+)) [Compound 75, (+)-6-[amino(4-chlorophenyl)(1-methyl-1H-imidazol-5-yl)methyl]-4-(3-chlorophenyl)-1-methyl-2(1H)-quinolinone]", "values": [
      {"measurement": "lethalities", "setting": "[1]", "result": "no lethalities were observed"},
      {"measurement": "signs of toxicity", "setting": "[1]", "result": "did not show any signs of toxicity"},
      {"measurement": "effect on mean arthritic score (in words)", "setting": "[2]", "result": "clearly suppresses the arthritic score"},
      {"measurement": "effect on mean number of affected paws (in words)", "setting": "[2]", "result": "reduces that number"},
      {"measurement": "effect on mean arthritic score (in words)", "setting": "100 mg/kg orally twice daily, versus vehicle, listed as compound 75", "result": "reduces the mean arthritic score"},
      {"measurement": "incidence of ankylosis", "setting": "100 mg/kg orally twice daily, summary in text of Table 12", "result": 60, "unit": "%"},
      {"measurement": "Ankylosis score", "setting": "day 22 after immunization", "result": 0.00},
      {"measurement": "Incidence of ankylosis (% of animals affected)", "setting": "day 22 after immunization", "result": 0, "unit": "%"},
      {"measurement": "Incidence of arthritis (% of animals affected)", "setting": "day 22 after immunization", "result": 0, "unit": "%"},
      {"measurement": "Mean Arthritic Score", "setting": "day 22 after immunization", "result": 0.00},
      {"measurement": "Mean number of affected paws", "setting": "day 22 after immunization", "result": 0.00},
      {"measurement": "Ankylosis score", "setting": "day 24 after immunization", "result": 0.00},
      {"measurement": "Incidence of ankylosis (% of animals affected)", "setting": "day 24 after immunization", "result": 0, "unit": "%"},
      {"measurement": "Incidence of arthritis (% of animals affected)", "setting": "day 24 after immunization", "result": 20, "unit": "%"},
      {"measurement": "Mean Arthritic Score", "setting": "day 24 after immunization", "result": 0.05},
      {"measurement": "Mean number of affected paws", "setting": "day 24 after immunization", "result": 0.20},
      {"measurement": "Ankylosis score", "setting": "day 27 after immunization", "result": 0.30},
      {"measurement": "Incidence of ankylosis (% of animals affected)", "setting": "day 27 after immunization", "result": 10, "unit": "%"},
      {"measurement": "Incidence of arthritis (% of animals affected)", "setting": "day 27 after immunization", "result": 40, "unit": "%"},
      {"measurement": "Mean Arthritic Score", "setting": "day 27 after immunization", "result": 0.60},
      {"measurement": "Mean number of affected paws", "setting": "day 27 after immunization", "result": 0.80},
      {"measurement": "Ankylosis score", "setting": "day 29 after immunization", "result": 0.80},
      {"measurement": "Incidence of ankylosis (% of animals affected)", "setting": "day 29 after immunization", "result": 50, "unit": "%"},
      {"measurement": "Incidence of arthritis (% of animals affected)", "setting": "day 29 after immunization", "result": 80, "unit": "%"},
      {"measurement": "Mean Arthritic Score", "setting": "day 29 after immunization", "result": 0.90},
      {"measurement": "Mean number of affected paws", "setting": "day 29 after immunization", "result": 1.30},
      {"measurement": "Ankylosis score", "setting": "day 31 after immunization", "result": 1.10},
      {"measurement": "Incidence of ankylosis (% of animals affected)", "setting": "day 31 after immunization", "result": 50, "unit": "%"},
      {"measurement": "Incidence of arthritis (% of animals affected)", "setting": "day 31 after immunization", "result": 70, "unit": "%"},
      {"measurement": "Mean Arthritic Score", "setting": "day 31 after immunization", "result": 1.03},
      {"measurement": "Mean number of affected paws", "setting": "day 31 after immunization", "result": 1.70},
      {"measurement": "Ankylosis score", "setting": "day 34 after immunization", "result": 1.20},
      {"measurement": "Incidence of ankylosis (% of animals affected)", "setting": "day 34 after immunization", "result": 50, "unit": "%"},
      {"measurement": "Incidence of arthritis (% of animals affected)", "setting": "day 34 after immunization", "result": 60, "unit": "%"},
      {"measurement": "Mean Arthritic Score", "setting": "day 34 after immunization", "result": 0.80},
      {"measurement": "Mean number of affected paws", "setting": "day 34 after immunization", "result": 1.20},
      {"measurement": "Ankylosis score", "setting": "day 36 after immunization", "result": 1.40},
      {"measurement": "Incidence of ankylosis (% of animals affected)", "setting": "day 36 after immunization", "result": 60, "unit": "%"},
      {"measurement": "Incidence of arthritis (% of animals affected)", "setting": "day 36 after immunization", "result": 70, "unit": "%"},
      {"measurement": "Mean Arthritic Score", "setting": "day 36 after immunization", "result": 0.75},
      {"measurement": "Mean number of affected paws", "setting": "day 36 after immunization", "result": 1.30},
      {"measurement": "Ankylosis score", "setting": "day 37 after immunization (end of the experiment), 100 mg/kg", "result": 1.2},
      {"measurement": "Incidence of ankylosis (% of animals affected)", "setting": "day 37 after immunization", "result": 60, "unit": "%"},
      {"measurement": "Incidence of arthritis (% of animals affected)", "setting": "day 37 after immunization", "result": 60, "unit": "%"},
      {"measurement": "Mean Arthritic Score", "setting": "day 37 after immunization", "result": 0.80},
      {"measurement": "Mean number of affected paws", "setting": "day 37 after immunization", "result": 1.30}
    ]}
  ]
}
